Measured values reported in PubChem BioAssay (NCI).
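Grown in 96-well plates, cells were treated for 48 hours with each compound at five concentrations. Insufficient inhibition: endpoint recorded as highest concentration tested. Definition used: TGI = concentration required for complete inhibition of growth.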

Key:
Assay in all cases: NCI tumour cell line growth inhibition, 48 h
786-0 renal = test system: 786-0 renal
A498 renal = test system: A498 renal
A549 NSCLC = test system: A549 NSCLC
ACHN renal = test system: ACHN renal
BT-549 breast = test system: BT-549 breast
CAKI-1 renal = test system: CAKI-1 renal
CCRF-CEM leukemia = test system: CCRF-CEM leukemia
COLO 205 colon = test system: COLO 205 colon
DU-145 prostate = test system: DU-145 prostate
EKVX NSCLC = test system: EKVX NSCLC
HCT-116 colon = test system: HCT-116 colon
HCT-15 colon = test system: HCT-15 colon
HL-60(TB) leukemia = test system: HL-60(TB) leukemia
HOP-62 NSCLC = test system: HOP-62 NSCLC
HOP-92 NSCLC = test system: HOP-92 NSCLC
HS 578T breast = test system: HS 578T breast
HT29 colon = test system: HT29 colon
IGROV1 ovarian = test system: IGROV1 ovarian
K-562 leukemia = test system: K-562 leukemia
KM12 colon = test system: KM12 colon
LOX IMVI melanoma = test system: LOX IMVI melanoma
M14 melanoma = test system: M14 melanoma
MALME-3M melanoma = test system: MALME-3M melanoma
MCF7 breast = test system: MCF7 breast
MDA-MB-231 breast = test system: MDA-MB-231 breast
MDA-MB-435 = test system: MDA-MB-435
MDA-N = test system: MDA-N
NCI-H226 lung = test system: NCI-H226 lung
NCI-H23 lung = test system: NCI-H23 lung
NCI-H460 lung = test system: NCI-H460 lung
NCI-H522 lung = test system: NCI-H522 lung
NCI/ADR-RES ovarian = test system: NCI/ADR-RES ovarian
OVCAR-3 ovarian = test system: OVCAR-3 ovarian
OVCAR-4 ovarian = test system: OVCAR-4 ovarian
OVCAR-5 ovarian = test system: OVCAR-5 ovarian
OVCAR-8 ovarian = test system: OVCAR-8 ovarian
PC-3 prostate = test system: PC-3 prostate
RPMI-8226 leukemia = test system: RPMI-8226 leukemia
RXF 393 renal = test system: RXF 393 renal
SF-268 CNS = test system: SF-268 CNS
SF-295 CNS = test system: SF-295 CNS
SK-MEL-2 melanoma = test system: SK-MEL-2 melanoma
SK-MEL-28 melanoma = test system: SK-MEL-28 melanoma
SK-MEL-5 melanoma = test system: SK-MEL-5 melanoma
SK-OV-3 ovarian = test system: SK-OV-3 ovarian
SN12C renal = test system: SN12C renal
SNB-19 CNS = test system: SNB-19 CNS
SNB-75 CNS = test system: SNB-75 CNS
SR leukemia = test system: SR leukemia
SW-620 colon = test system: SW-620 colon
T-47D breast = test system: T-47D breast
TK-10 renal = test system: TK-10 renal
U251 CNS = test system: U251 CNS
UACC-62 melanoma = test system: UACC-62 melanoma
UO-31 renal = test system: UO-31 renal
SF-539 CNS = test system: SF-539 CNS
UACC-257 melanoma = test system: UACC-257 melanoma

With `O=C(O)C1(Nc2ccc(Cl)cc2)CCCC1` as the compound, how does the TGI (786-0 renal) read?
Its TGI is > 100 µM.

And the TGI (A498 renal)?
Its TGI is > 100 µM.

What about the TGI (A549 NSCLC) of the same compound?
Its TGI is > 100 µM.

What about the TGI (ACHN renal) of the same compound?
Its TGI is > 100 µM.

And the TGI (BT-549 breast)?
The TGI was > 100 µM.

What about the TGI (CAKI-1 renal) of the same compound?
Its TGI is > 100 µM.

And the TGI (CCRF-CEM leukemia)?
The TGI was > 100 µM.

What about the TGI (COLO 205 colon) of the same compound?
Its TGI is > 100 µM.

What about the TGI (DU-145 prostate) of the same compound?
Its TGI is > 100 µM.

What about the TGI (EKVX NSCLC) of the same compound?
The TGI was > 100 µM.

And the TGI (HCT-116 colon)?
Its TGI is > 100 µM.

And the TGI (HCT-15 colon)?
The TGI was > 100 µM.

What about the TGI (HL-60(TB) leukemia) of the same compound?
The TGI was > 100 µM.

And the TGI (HOP-62 NSCLC)?
Its TGI is > 100 µM.

And the TGI (HOP-92 NSCLC)?
Its TGI is > 100 µM.

And the TGI (HS 578T breast)?
Its TGI is > 100 µM.

And the TGI (HT29 colon)?
Its TGI is > 100 µM.

What about the TGI (IGROV1 ovarian) of the same compound?
The TGI was > 100 µM.

And the TGI (K-562 leukemia)?
The TGI was > 100 µM.

What about the TGI (KM12 colon) of the same compound?
The TGI was > 100 µM.

What about the TGI (LOX IMVI melanoma) of the same compound?
The TGI was > 100 µM.

And the TGI (M14 melanoma)?
The TGI was > 100 µM.

And the TGI (MALME-3M melanoma)?
The TGI was > 100 µM.

And the TGI (MCF7 breast)?
Its TGI is > 100 µM.

What about the TGI (MDA-MB-231 breast) of the same compound?
The TGI was > 100 µM.

What about the TGI (MDA-MB-435) of the same compound?
The TGI was > 100 µM.

And the TGI (MDA-N)?
Its TGI is > 100 µM.

What about the TGI (NCI-H226 lung) of the same compound?
Its TGI is > 100 µM.

And the TGI (NCI-H23 lung)?
Its TGI is > 100 µM.

And the TGI (NCI-H460 lung)?
Its TGI is > 100 µM.

What about the TGI (NCI-H522 lung) of the same compound?
The TGI was > 100 µM.

And the TGI (NCI/ADR-RES ovarian)?
The TGI was > 100 µM.

And the TGI (OVCAR-3 ovarian)?
The TGI was > 100 µM.

What about the TGI (OVCAR-4 ovarian) of the same compound?
Its TGI is > 100 µM.

And the TGI (OVCAR-5 ovarian)?
Its TGI is > 100 µM.

And the TGI (OVCAR-8 ovarian)?
Its TGI is > 100 µM.

And the TGI (PC-3 prostate)?
The TGI was > 100 µM.

And the TGI (RPMI-8226 leukemia)?
Its TGI is > 100 µM.

What about the TGI (RXF 393 renal) of the same compound?
Its TGI is > 100 µM.

And the TGI (SF-268 CNS)?
Its TGI is > 100 µM.

What about the TGI (SF-295 CNS) of the same compound?
The TGI was > 100 µM.

What about the TGI (SK-MEL-2 melanoma) of the same compound?
The TGI was > 100 µM.

And the TGI (SK-MEL-28 melanoma)?
The TGI was > 100 µM.

What about the TGI (SK-MEL-5 melanoma) of the same compound?
Its TGI is > 100 µM.

And the TGI (SK-OV-3 ovarian)?
Its TGI is > 100 µM.

And the TGI (SN12C renal)?
Its TGI is > 100 µM.

What about the TGI (SNB-19 CNS) of the same compound?
The TGI was > 100 µM.

And the TGI (SNB-75 CNS)?
The TGI was > 100 µM.

What about the TGI (SR leukemia) of the same compound?
Its TGI is > 100 µM.

And the TGI (SW-620 colon)?
The TGI was > 100 µM.

And the TGI (T-47D breast)?
The TGI was > 100 µM.

What about the TGI (TK-10 renal) of the same compound?
The TGI was > 100 µM.

And the TGI (U251 CNS)?
The TGI was > 100 µM.

And the TGI (UACC-62 melanoma)?
Its TGI is > 100 µM.

And the TGI (UO-31 renal)?
The TGI was > 100 µM.

`CCOC(=O)CNC(=O)C(CSCC1C(=O)Nc2ccccc21)NC(=O)CCC(N)C(=O)OCC` (stereo not given) was tested. Which TGI (786-0 renal) did it give?
Its TGI is 4.28 µM.

And the TGI (A498 renal)?
The TGI was 8.19 µM.

What about the TGI (A549 NSCLC) of the same compound?
The TGI was 6.63 µM.

And the TGI (ACHN renal)?
Its TGI is 3.74 µM.

And the TGI (BT-549 breast)?
The TGI was 7.14 µM.

What about the TGI (CAKI-1 renal) of the same compound?
Its TGI is 2.4 µM.

What about the TGI (CCRF-CEM leukemia) of the same compound?
The TGI was 0.79 µM.

And the TGI (COLO 205 colon)?
Its TGI is 2.54 µM.

What about the TGI (DU-145 prostate) of the same compound?
Its TGI is 34.4 µM.

What about the TGI (EKVX NSCLC) of the same compound?
Its TGI is 4.47 µM.

What about the TGI (HCT-116 colon) of the same compound?
The TGI was 2.97 µM.

And the TGI (HCT-15 colon)?
Its TGI is 2.53 µM.

What about the TGI (HL-60(TB) leukemia) of the same compound?
The TGI was 4.7 µM.

What about the TGI (HOP-62 NSCLC) of the same compound?
The TGI was 4.99 µM.

And the TGI (HOP-92 NSCLC)?
The TGI was 5.03 µM.

What about the TGI (HS 578T breast) of the same compound?
The TGI was 17.6 µM.

What about the TGI (HT29 colon) of the same compound?
The TGI was 3.02 µM.

And the TGI (IGROV1 ovarian)?
The TGI was 2.83 µM.

What about the TGI (K-562 leukemia) of the same compound?
The TGI was 0.948 µM.

What about the TGI (KM12 colon) of the same compound?
The TGI was 8.33 µM.

What about the TGI (LOX IMVI melanoma) of the same compound?
The TGI was 1.64 µM.

What about the TGI (M14 melanoma) of the same compound?
Its TGI is 4.01 µM.

What about the TGI (MALME-3M melanoma) of the same compound?
The TGI was 4.89 µM.

What about the TGI (MCF7 breast) of the same compound?
Its TGI is 3.46 µM.

And the TGI (MDA-MB-231 breast)?
The TGI was 3.48 µM.

What about the TGI (MDA-MB-435) of the same compound?
Its TGI is 3.19 µM.

What about the TGI (MDA-N) of the same compound?
Its TGI is 5.01 µM.

And the TGI (NCI-H226 lung)?
The TGI was 5.44 µM.

What about the TGI (NCI-H23 lung) of the same compound?
The TGI was 5.62 µM.

What about the TGI (NCI-H460 lung) of the same compound?
Its TGI is 20.9 µM.

And the TGI (NCI-H522 lung)?
The TGI was 3.59 µM.

And the TGI (NCI/ADR-RES ovarian)?
The TGI was 3.02 µM.

And the TGI (OVCAR-3 ovarian)?
Its TGI is 5.65 µM.

And the TGI (OVCAR-4 ovarian)?
The TGI was 9.11 µM.

And the TGI (OVCAR-5 ovarian)?
The TGI was 3.65 µM.

What about the TGI (OVCAR-8 ovarian) of the same compound?
The TGI was 11.4 µM.

And the TGI (PC-3 prostate)?
The TGI was 4.9 µM.

What about the TGI (RPMI-8226 leukemia) of the same compound?
The TGI was 3.09 µM.

What about the TGI (RXF 393 renal) of the same compound?
Its TGI is 2.72 µM.

What about the TGI (SF-268 CNS) of the same compound?
Its TGI is 6.44 µM.

And the TGI (SF-295 CNS)?
Its TGI is 6.31 µM.

And the TGI (SF-539 CNS)?
The TGI was 0.608 µM.

What about the TGI (SK-MEL-2 melanoma) of the same compound?
Its TGI is 4.51 µM.

What about the TGI (SK-MEL-28 melanoma) of the same compound?
The TGI was 3.59 µM.

What about the TGI (SK-MEL-5 melanoma) of the same compound?
Its TGI is 3.26 µM.

What about the TGI (SN12C renal) of the same compound?
Its TGI is 3.64 µM.

What about the TGI (SNB-19 CNS) of the same compound?
Its TGI is 20 µM.

And the TGI (SR leukemia)?
The TGI was 0.546 µM.

What about the TGI (SW-620 colon) of the same compound?
The TGI was 2.73 µM.

And the TGI (T-47D breast)?
Its TGI is > 100 µM.

What about the TGI (TK-10 renal) of the same compound?
Its TGI is 5.14 µM.

What about the TGI (U251 CNS) of the same compound?
Its TGI is 2.73 µM.

What about the TGI (UACC-257 melanoma) of the same compound?
Its TGI is 14.3 µM.

What about the TGI (UACC-62 melanoma) of the same compound?
The TGI was 2.92 µM.

What about the TGI (UO-31 renal) of the same compound?
The TGI was 2.74 µM.
